Laboratory results reported in US10370343B2, “[6,6] Fused bicyclic HDAC8 inhibitors” (FORMA Therapeutics, Inc., priority 2015, dated 2019).

Molecular target: T1, Recombinant N-terminal GST tag full-length human HDAC8 (Homo sapiens, UniProt Q9BY41)
T1 construct: Recombinant N-terminal GST tag full-length human HDAC8; purchased SignalChem H90-30G-1000; host or cells: baculovirus in Sf9 insect cells
T1 sequence (Q9BY41 1-377): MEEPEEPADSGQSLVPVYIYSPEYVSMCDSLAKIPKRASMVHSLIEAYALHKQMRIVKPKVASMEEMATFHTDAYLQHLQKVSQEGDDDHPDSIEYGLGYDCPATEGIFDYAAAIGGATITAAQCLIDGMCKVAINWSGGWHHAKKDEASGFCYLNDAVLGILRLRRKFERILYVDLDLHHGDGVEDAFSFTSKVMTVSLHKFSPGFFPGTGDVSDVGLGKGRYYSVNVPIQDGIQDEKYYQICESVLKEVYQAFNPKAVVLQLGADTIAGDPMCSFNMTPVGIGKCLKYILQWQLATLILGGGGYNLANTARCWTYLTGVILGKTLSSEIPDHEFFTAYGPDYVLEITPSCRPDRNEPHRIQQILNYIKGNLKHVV
Assay: HDAC8 probe binding assay, time resolved fluorescence (TRF) format
Settings: compounds grouped by IC50 range (Table 2)
Experimental: The HDAC8 probe binding assay was performed using a time resolved fluorescence (TRF) assay format. Recombinant N-terminal GST tag full-length human HDAC8 was expressed and purified from baculovirus in Sf9 insect cells (SignalChem, #[…]-1000). […] Plates were incubated for 16 hours at room temperature before time resolved fluorescence was read on the Envision (Excitation at 340 nm, and Emission at 485 nm and 535 nm, Perkin Elmer). Data from HDAC8 Assays were reported as percent inhibition (inh) compared with control wells based on the following equation: % inh=1-((FLU-AveLow)/(AveHigh-AveLow)) where FLU=measured time resolved fluorescence. AveLow=average time resolved fluorescence of no enzyme control (n=32). AveHigh=average time resolved fluorescence of DMSO control (n=32). IC50 values were determined by curve fitting of the standard 4 parameter logistic fitting algorithm included in the Activity Base software package: IDBS XE Designer Model205. Data is fitted using the Levenburg Marquardt algorithm. Ranges of IC50 values for compounds of the invention are disclosed in Table 2: Table 2. provides the compounds arranged according to […] determined in a time resolved fluorescence (TRF) assay. The compounds are separated into four groups: […]

IC50 [nM]	Structure (SMILES)
25 to 100	O=C(NO)c1ccc2c(c1)N(CC1CCc3ccccc3O1)C(=O)CO2 (racemic) [Compound I-184, (+/−)-4-(chroman-2-ylmethyl)-N-hydroxy-3-oxo-3,4-dihydro-2H-benzo[b][1,4]oxazine-6-carboxamide]
≤ 25	O=C(NO)c1ccc2c(c1)N(CC1COc3ccccc3O1)C(=O)CO2 (racemic) [Compound I-185, (+/−)-4-((2,3-dihydrobenzo[b][1,4]dioxin-2-yl)methyl)-N-hydroxy-3-oxo-3,4-dihydro-2H-benzo[b][1,4]oxazine-6-carboxamide]
25 to 100	O=C(NO)c1ccc2c(c1)N(Cc1ccc(C(=O)N3CCCCC3)cc1)C(=O)CO2 [Compound I-150, N-hydroxy-3-oxo-4-(4-(piperidine-1-carbonyl)benzyl)-3,4-dihydro-2H-benzo[b][1,4]oxazine-6-carboxamide]
25 to 100	COc1ccc(CN2C(=O)COc3c(F)cc(C(=O)NO)cc32)cc1 [Compound I-163, 8-fluoro-N-hydroxy-4-(4-methoxybenzyl)-3-oxo-3,4-dihydro-2H-benzo[b][1,4]oxazine-6-carboxamide]
25 to 100	O=C(NO)c1cc(F)c2c(c1)N(Cc1ccc(-n3cccn3)cc1)C(=O)CO2 [Compound I-164, 4-(4-(1H-pyrazol-1-yl)benzyl)-8-fluoro-N-hydroxy-3-oxo-3,4-dihydro-2H-benzo[b][1,4]oxazine-6-carboxamide]
≤ 25	COc1ccc(CN2C(=O)OCc3ccc(C(=O)NO)cc32)cc1 [Compound I-165, N-hydroxy-1-(4-methoxybenzyl)-2-oxo-2,4-dihydro-1H-benzo[d][1,3]oxazine-7-carboxamide]
≤ 25	O=C(NO)c1ccc2c(c1)N(Cc1ccc(-n3cccn3)cc1)C(=O)OC2 [Compound I-166, 1-(4-(1H-pyrazol-1-yl)benzyl)-N-hydroxy-2-oxo-1,4-dihydro-2H-benzo[d][1,3]oxazine-7-carboxamide]
25 to 100	COc1ccc(CN2CC(C(=O)N(C)C)Oc3ccc(C(=O)NO)cc32)cc1 (stereo not shown) [Compound I-169, N6-hydroxy-4-(4-methoxybenzyl)-N2,N2-dimethyl-3,4-dihydro-2H-benzo[b][1,4]oxazine-2,6-dicarboxamide]
25 to 100	CNC(=O)C1CN(Cc2ccc(OC)cc2)c2cc(C(=O)NO)ccc2O1 (stereo not shown) [Compound I-170, N^6-hydroxy-4-(4-methoxybenzyl)-N^2-methyl-3,4-dihydro-2H, benzo[b][1,4]oxazine-2,6-dicarboxamide]
25 to 100	COc1ccc(CN2CC(C(=O)N3CCOCC3)Oc3ccc(C(=O)NO)cc32)cc1 (stereo not shown) [Compound I-171, N-hydroxy-4-(4-methoxybenzyl)-2-(morpholine-4-carbonyl)-3,4-dihydro-2H-benzo[b][1,4]oxazine-6-carboxamide]
25 to 100	COc1ccc(CN2CC(C(=O)NC3CCOCC3)Oc3ccc(C(=O)NO)cc32)cc1 (stereo not shown) [Compound I-172, N6-hydroxy-4-(4-methoxybenzyl)-N2-(tetrahydro-2H-pyran-4-yl)-3,4-dihydro-2H-benzo[b][1,4]oxazine-2,6-dicarboxamide]
25 to 100	O=C(NO)c1ccc2c(c1)N(Cc1cnc3c(c1)OCCO3)C(=O)CO2 [Compound I-173, 4-((2,3-dihydro-[1,4]dioxino[2,3-b]pyridin-7-yl)methyl)-N-hydroxy-3-oxo-3,4-dihydro-2H-benzo[b][1,4]oxazine-6-carboxamide]
≤ 25	O=C(NO)c1ccc2c(c1)N(Cc1ccc(-n3cncn3)cc1)C(=O)CO2 [Compound I-175, 4-(4-(1H-1,2,4-triazol-1-yl)benzyl)-N-hydroxy-3-oxo-3,4-dihydro-2H-benzo[b][1,4]oxazine-6-carboxamide]
≤ 25	O=C(NO)c1ccc2c(c1)N(Cc1ccc(N3CCCC3)cc1)C(=O)CO2 [Compound I-176, N-hydroxy-3-oxo-4-(4-(pyrrolidin-1-yl)benzyl)-3,4-dihydro-2H-benzo[b][1,4]oxazine-6-carboxamide]
25 to 100	O=C(NO)c1ccc2c(c1)N(Cc1ccc(N3CCOCC3)cc1)C(=O)CO2 [Compound I-177, N-hydroxy-4-(4-morpholinobenzyl)-3-oxo-3,4-dihydro-2H-benzo[b][1,4]oxazine-6-carboxamide]
≤ 25	O=C(NO)c1ccc2c(c1)N(Cc1cnc(-c3ccccc3)o1)C(=O)CO2 [Compound I-178, N-hydroxy-3-oxo-4-((2-phenyloxazol-5-yl)methyl)-3,4-dihydro-2H-benzo[b][1,4]oxazine-6-carboxamide]

IC50 [nM]	Structure (SMILES)
≤ 25	O=C(NO)c1ccc2c(c1)N(Cc1coc(-c3ccccc3)n1)C(=O)CO2 [Compound I-179, N-hydroxy-3-oxo-4-((2-phenyloxazol-4-yl)methyl)-3,4-dihydro-2H-benzo[b][1,4]oxazine-6-carboxamide]
≤ 25	O=C(NO)c1ccc2c(c1)N(Cc1cnn(-c3ccccc3)n1)C(=O)CO2 [Compound I-180, N-hydroxy-3-oxo-4-((2-phenyl-2H-1,2,3-triazol-4-yl)methyl)-3,4-dihydro-2H-benzo[b][1,4]oxazine-6-carboxamide]
≤ 25	CC(C)(C)OC(=O)N1CCc2cc(CN3C(=O)COc4ccc(C(=O)NO)cc43)ccc2C1 [Compound I-181, tert-butyl 6-((6-(hydroxycarbamoyl)-3-oxo-2,3-dihydrobenzo[b][1,4]oxazin-4-yl)methyl)-3,4-dihydroisoquinoline-2(1H)-carboxylate]
25 to 100	CN1CCCc2cc(CN3C(=O)COc4ccc(C(=O)NO)cc43)ccc21 [Compound I-182, N-hydroxy-4-((1-methyl-1,2,3,4-tetrahydroquinolin-6-yl)methyl)-3-oxo-3,4-dihydro-2H-benzo[b][1,4]oxazine-6-carboxamide]
≤ 25	CN1C(=O)CCc2cc(CN3C(=O)COc4ccc(C(=O)NO)cc43)ccc21 [Compound I-183, N-hydroxy-4-((1-methyl-2-oxo-1,2,3,4-tetrahydroquinolin-6-yl)methyl)-3-oxo-3,4-dihydro-2H-benzo[b][1,4]oxazine-6-carboxamide]
≤ 25	CC(=O)Nc1ccc(CN2C(=O)COc3ccc(C(=O)NO)cc32)cc1 [Compound I-186, 4-(4-acetamidobenzyl)-N-hydroxy-3-oxo-3,4-dihydro-2H-benzo[b][1,4]oxazine-6-carboxamide]
≤ 25	O=C(NO)c1ccc2c(c1)N(Cc1ccc(-n3ccnc3)cc1)C(=O)CO2 [Compound I-187, 4-(4-(1H-imidazol-1-yl)benzyl)-N-hydroxy-3-oxo-3,4-dihydro-2H-benzo[b][1,4]oxazine-6-carboxamide]
25 to 100	O=C(NO)c1ccc2c(c1)N(Cc1ccc(N3CCCC3=O)cc1)C(=O)CO2 [Compound I-188, N-hydroxy-3-oxo-4-(4-(2-oxopyrrolidin-1-yl)benzyl)-3,4-dihydro-2H-benzo[b][1,4]oxazine-6-carboxamide]
≤ 25	CN(C)S(=O)(=O)c1ccc(CN2C(=O)COc3ccc(C(=O)NO)cc32)cc1 [Compound I-189, 4-(4-(N,N-dimethylsulfamoyl)benzyl)-N-hydroxy-3-oxo-3,4-dihydro-2H-benzo[b][1,4]oxazine-6-carboxamide]
25 to 100	O=C(NO)c1ccc2c(c1)N(Cc1ccc(C(=O)N3CCOCC3)cc1)C(=O)CO2 [Compound I-190, N-hydroxy-4-(4-(morpholine-4-carbonyl)benzyl)-3-oxo-3,4-dihydro-2H-benzo[b][1,4]oxazine-6-carboxamide]
≤ 25	O=C(NO)c1ccc2c(c1)N(Cc1ncc(-c3ccccc3)o1)C(=O)CO2 [Compound I-191, N-hydroxy-3-oxo-4-((5-phenyloxazol-2-yl)methyl)-3,4-dihydro-2H-benzo[b][1,4]oxazine-6-carboxamide]
25 to 100	O=C(NO)c1ccc2c(c1)N(Cc1ccc(C(=O)N3CCCC3)cc1)C(=O)CO2 [Compound I-192, N-hydroxy-3-oxo-4-(4-(pyrrolidine-1-carbonyl)benzyl)-3,4-dihydro-2H-benzo[b][1,4]oxazine-6-carboxamide]
25 to 100	O=C(NO)c1ccc2c(c1)N(Cc1ncn(-c3ccccc3)n1)C(=O)CO2 [Compound I-193, N-hydroxy-3-oxo-4-((1-phenyl-1H-1,2,4-triazol-3-yl)methyl)-3,4-dihydro-2H-benzo[b][1,4]oxazine-6-carboxamide]
≤ 25	COCCOc1ccc(CN2C(=O)COc3ccc(C(=O)NO)cc32)cc1 [Compound I-196, N-hydroxy-4-(4-(2-methoxyethoxy)benzyl)-3-oxo-3,4-dihydro-2H-benzo[b][1,4]oxazine-6-carboxamide]
≤ 25	COCCOc1cccc(CN2C(=O)COc3ccc(C(=O)NO)cc32)c1 [Compound I-197, N-hydroxy-4-(3-(2-methoxyethoxy)benzyl)-3-oxo-3,4-dihydro-2H-benzo[b][1,4]oxazine-6-carboxamide]
